Measured values from ChEMBL document CHEMBL1201862, “PubChem BioAssay data set” (2004).
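Dose response: 5 concentrations. Exposure: 48 h. Format: 96-well plates. Endpoint: linear interpolation; highest concentration if not reached. At the GI50, growth is halved.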 The source made the active and inactive calls. Cut-off read from the data, not from the text of the source: active = GI50 up to about 1.1 µM and inactive = higher.

Legend:
Assay in all cases: NCI tumour cell line growth inhibition, 48 h
[1] = test system: MOLT-4
[2] = test system: A498
[3] = test system: PC-3
[4] = test system: NCI/ADR-RES
[5] = test system: HCC 2998
[6] = test system: EKVX
[7] = test system: MDA-MB-435
[8] = test system: BT-549
[9] = test system: UO-31
[10] = test system: NCI-H226
[11] = test system: MDA-MB-231
[12] = test system: SR
[13] = test system: Hs-578T
[14] = test system: MCF7
[15] = test system: LOX IMVI
[16] = test system: DU-145
[17] = test system: MDA-N
[18] = test system: T47D

Structure (SMILES)	GI50 [1]	GI50 [2]	GI50 [3]	GI50 [4]	GI50 [5]	GI50 [6]	GI50 [7]	GI50 [8]	GI50 [9]	GI50 [10]	GI50 [11]	GI50 [12]	GI50 [13]	GI50 [14]	GI50 [15]	GI50 [16]	GI50 [17]	GI50 [18]
CN(C)CCCn1c(-c2cc(C(C)(C)C)c(O)c(C(C)(C)C)c2)cs/c1=N\c1ccccc1	0.131 µM (active)	1.94 µM (inactive)	1.87 µM (inactive)	1.79 µM (inactive)	1.85 µM (inactive)	2.16 µM (inactive)	2.34 µM (inactive)	3.13 µM (inactive)	1.97 µM (inactive)	1.98 µM (inactive)	2.34 µM (inactive)							
CC(=O)OCC1OC(n2c3c(c(-c4ccco4)c(C#N)c2=S)CCC3)C(OC(C)=O)C(OC(C)=O)C1OC(C)=O (stereo not given)	4.42 µM (inactive)		49.7 µM (inactive)	37.8 µM (inactive)	> 100 µM (inactive)		68.9 µM (inactive)	43.9 µM (inactive)	80.7 µM (inactive)			31.6 µM (inactive)	40.9 µM (inactive)	63.8 µM (inactive)	60.1 µM (inactive)	> 100 µM (inactive)	> 100 µM (inactive)	
Cc1cnc(/N=c2\sc(C)cn2-c2ncc(C)s2)s1	> 100 µM (inactive)		> 100 µM (inactive)	> 100 µM (inactive)	> 100 µM (inactive)	> 100 µM (inactive)	> 100 µM (inactive)	> 100 µM (inactive)	> 100 µM (inactive)	> 100 µM (inactive)	> 100 µM (inactive)	> 100 µM (inactive)	> 100 µM (inactive)	> 100 µM (inactive)	> 100 µM (inactive)	> 100 µM (inactive)	> 100 µM (inactive)	> 100 µM (inactive)
CC1(C)CC(=O)C2=C(C1)OC1=C(CC(C)(C)CC1=O)C2c1ccccc1[N+](=O)[O-] (stereo not given)	> 100 µM (inactive)	> 100 µM (inactive)	> 100 µM (inactive)	> 100 µM (inactive)	> 100 µM (inactive)	> 100 µM (inactive)	> 100 µM (inactive)		2 µM (inactive)	> 100 µM (inactive)	> 100 µM (inactive)	> 100 µM (inactive)	> 100 µM (inactive)		> 100 µM (inactive)	> 100 µM (inactive)	> 100 µM (inactive)	> 100 µM (inactive)
COC(=O)c1cn(CC(O)CCl)nn1 (stereo not given)	> 100 µM (inactive)	> 100 µM (inactive)	> 100 µM (inactive)	> 100 µM (inactive)	> 100 µM (inactive)	> 100 µM (inactive)	> 100 µM (inactive)	> 100 µM (inactive)	> 100 µM (inactive)		> 100 µM (inactive)		> 100 µM (inactive)	> 100 µM (inactive)	> 100 µM (inactive)	> 100 µM (inactive)	> 100 µM (inactive)	> 100 µM (inactive)
CC(=O)OC(OC(C)=O)n1cc(C=O)c2ccccc21	> 100 µM (inactive)	36.7 µM (inactive)	> 100 µM (inactive)	> 100 µM (inactive)	> 100 µM (inactive)				63.5 µM (inactive)	> 100 µM (inactive)	> 100 µM (inactive)	> 100 µM (inactive)	> 100 µM (inactive)	25.9 µM (inactive)	> 100 µM (inactive)	> 100 µM (inactive)		> 100 µM (inactive)
CC(=O)C1CC[C@@H]2[C@H](CC[C@]3(C)[C@@H](O)CC[C@@H]23)[C@H]1C(=O)O (stereo not given in full)	> 100 µM (inactive)	> 100 µM (inactive)	> 100 µM (inactive)	> 100 µM (inactive)	> 100 µM (inactive)	> 100 µM (inactive)	> 100 µM (inactive)	> 100 µM (inactive)	> 100 µM (inactive)		> 100 µM (inactive)	> 100 µM (inactive)	74.1 µM (inactive)	> 100 µM (inactive)				
